The values that follow come from US7722863B2, “Use of granzyme b as an hsp70/hsp70 peptide dependent inducer of apoptosis in tumor cells” (Multimmune GmbH, priority 2002, dated 2010).

One experiment concerns NK cells. Nature of the experiment: Intracellular granzyme B expression after stimulation with Hsp70-peptide TKD. It counts as cell-based, human. On the procedure:
The NK cell line YT was cultured at cell densities ranging from 0.1-0.5×10^6 cells/ml RPMI-1640 medium (Life Technologies, Eggenstein, Germany) containing 10% heat inactivated fetal calf serum (FCS, Life Technologies, Eggenstein, Germany) supplemented with 6 mM L-glutamine, and antibiotics (100 IU/ml penicillin and 100 μg/ml streptomycin; Life Technologies). Transient plastic adherent NK cells were derived from buffy coats of healthy human volunteers. Ficoll separated peripheral blood mononuclear cells (PBMC) were cultured in rIL-2 (100 IU/ml, Chiron, Frankfurt, Germany) for 12 h. […]
Cells (0.5×10^6) were fixed in paraformaldehyde (1% PFA in PBS) for 10 min, and permeabilized in PBS containing BSA (0.5%), NaN3 (0.1%), and saponin (0.1%). […] Following washing cells were analysed on a FACSCalibur instrument (Becton Dickinson, Heidelberg, Germany).
The physiological role of our findings was tested in functional assays using naive and Hsp70 stimulated human NK cells. […] Although Hsp70 acts as a tumor-selective recognition structure for NK cells, as determined by antibody blocking studies (Multhoff et. al. (1997) J. Immunol. 158,4341; Multhoff et. al. (1995) Blood 86,1374), the NK-cytotoxic mechanism remains unclear. […]

The test system of a further experiment is CD3 positive T cells. Nature of the experiment: Intracellular granzyme B expression after treatment with Hsp70-peptide TKD. The format is cell-based, human. Particulars: treated with Hsp70-peptide TKD. Here is the method:
The physiological role of our findings was tested in functional assays using naive and Hsp70 stimulated human NK cells. […] Although Hsp70 acts as a tumor-selective recognition structure for NK cells, as determined by antibody blocking studies (Multhoff et. al. (1997) J. Immunol. 158,4341; Multhoff et. al. (1995) Blood 86,1374), the NK-cytotoxic mechanism remains unclear. To elucidate the possible mechanism, NK cells were incubated with Hsp70-peptide TKD ([…]) for 3 days. […] In contrast, granzyme B expression was not increased in CD3 positive T cells treated with Hsp70-peptide TKD. Light microscopical analysis of Hsp70-peptide activated NK cells co-incubated with Hsp70 membrane-positive CX+ and Hsp70 membrane-negative CX− cells is illustrated in FIG. 4A. Hsp70 membrane-positive CX+ and Hsp70 membrane-negative CX− tumor cells (0.1×10^6 cells/ml) were cultured in duplicates in 24 well plates for 2 days. […] CX+ and CX− tumor cells in the upper panel were cultured in the absence of NK cells; tumor cells in the lower panel were co-cultured for 12 h with NK cells that had been stimulated with Hsp70-peptide TKD (2 μg/ml, 3 days). Nearly 100% of the CX+ cell colonies were found in clusters with NK cells and viability of CX+ tumor cells appears to be reduced. […]

Another experiment deals with CX+ tumor target cells. Nature of the experiment: 12 h 51Cr release assay, NK cell mediated cytotoxicity. The format is cell-based, human. The settings on record: E:T ratios 2:1 to 20:1; TKD 3 days. Here is the method:
(§1) The NK cell line YT was cultured at cell densities ranging from 0.1-0.5×10^6 cells/ml RPMI-1640 medium (Life Technologies, Eggenstein, Germany) containing 10% heat inactivated fetal calf serum (FCS, Life Technologies, Eggenstein, Germany) supplemented with 6 mM L-glutamine, and antibiotics (100 IU/ml penicillin and 100 μg/ml streptomycin; Life Technologies). Transient plastic adherent NK cells were derived from buffy coats of healthy human volunteers. Ficoll separated peripheral blood mononuclear cells (PBMC) were cultured in rIL-2 (100 IU/ml, Chiron, Frankfurt, Germany) for 12 h. Following adherence selection of monocyte depleted peripheral blood lymphocytes according to a modified method of Vujanovic (Vujanovic et. al. (1993) Cell. Immunol. 151, 133), cells were cultivated in RPMI-1640 medium supplemented with Hsp70-peptide TKD (2 μg/ml) for 3 days. The human tumor sublines CX+/CX− and Colo+/Colo− were derived by cell sorting of CX-2 colon (Hsp70 positive: 60%) and Colo357 pancreas (Hsp70 positive: 70%) carcinoma cell lines using the Hsp70 specific monoclonal antibody C92F3B1, according to a previously described protocol (Multhoff et. al. (1997) J. Immunol. 158, 4341).
(§2) NK cell mediated cytotoxicity was measured using a 12 h ^51Cr radioisotope assay. As target cells the colon carcinoma sublines CX+ and CX− were used. For blocking studies the mAb C92F3B1 and an isotype matched control antibody (IgG1) were used at a final concentration of 5 μg/1×10^6 cells. Following incubation of CX+ and CX− target cells with the antibodies for 30 min at 4° C., the cells were labeled with ^51Cr and the cytotoxicity assay was performed as described by MacDonald (MacDonald et. al. (1974) J. Exp. Med. 140,718). The percentage of specific lysis was calculated as: [(experimental release−spontaneous release)/(maximal release−spontaneous release)]×100.
(§3) Cell kill of CX+/CX− and Colo+/Colo− tumor cells following contact with freshly isolated, unstimulated (NK d0) or Hsp70-peptide TKD stimulated NK cells (NK d3) was quantitated in a 12 h ^51Cr release assay (FIG. 4B). […] Technically, it is not possible to quantify the absolute amount of granzyme B that is transferred from NK cells into tumor cells by cell-to-cell contact. However, relative values of granzyme B release could be determined by ELISPOT analysis. Therefore, a comparison of the cytolytic response of freshly isolated, unstimulated (NK d0) and TKD-stimulated NK cells (NK d3) against CX+/CX− and Colo+/Colo− tumor cells was performed concomitantly with the definition of the granzyme B release. […] At an E:T ratio of 5:1, the number of granzyme B spots, as determined in three independent experiments, was as follows: CX+ 260±20, CX− 165±6; Colo+ 137±55; Colo− 66±8. […]

In the next experiment the test system is CX− tumor target cells. The experiment is described as above. The format is cell-based, human. Particulars: TKD 3 days. On the procedure: as §1, §2, §3
A further experiment relates to Colo+ tumor target cells. The description is as above. The format is cell-based, human. The settings on record: E:T ratios 2:1 to 20:1; TKD 3 days. Here is the method:
as §1, §2, §3

The test system of another experiment is Colo− tumor target cells. The experiment is described as above. It counts as cell-based, human. Particulars: TKD 3 days. On the procedure: as §1, §2, §3
The test system of another experiment is CX+ tumor cells. Description: Granzyme B ELISPOT, NK cells co-incubated with tumor cells. Particulars: TKD-stimulated NK cells (NK d3), 4 h coincubation, E:T 5:1, three independent experiments. It counts as cell-based, human. On the procedure:
(§4) Granzyme B release was compared in unstimualted NK cells (NK d0) and TKD stimulated NK cells (NK d3) after a 4 h co-incubation period with tumor cell lines CX+/CX− and Colo+/Colo−, at different effector to target cell ratios (E:T) ranging from 20:1 to 2:1. For detection a Granzyme B ELISPOT kit (#552572, BD, Heidelberg, Germany) was used. Briefly, 96-well ELISPOT plates (MAIPN45, Millipore) were coated overnight at 4° C. with capture antibody, blocked with RPMI-1640 culture medium containing 10% FCS and incubated with tumor and effector cells for 4 h at 37° C., as specified before. After washing in deionized water and wash buffers A and B, biotinylated anti-granzyme B antibody was added (2 μg/ml) for 2 h. After another two washing steps granzyme B was visualized by the addition of freshly prepared avidin-horseradish peroxidase (2 h) and substrate solution (25 min incubation period). Spots were counted automatically using ImmunoSpot Series I Analyzer. ^51Cr Release Assay and Inhibition Assay
(§5) Cell kill of CX+/CX− and Colo+/Colo− tumor cells following contact with freshly isolated, unstimulated (NK d0) or Hsp70-peptide TKD stimulated NK cells (NK d3) was quantitated in a 12 h ^51Cr release assay (FIG. 4B). […] Technically, it is not possible to quantify the absolute amount of granzyme B that is transferred from NK cells into tumor cells by cell-to-cell contact. However, relative values of granzyme B release could be determined by ELISPOT analysis. Therefore, a comparison of the cytolytic response of freshly isolated, unstimulated (NK d0) and TKD-stimulated NK cells (NK d3) against CX+/CX− and Colo+/Colo− tumor cells was performed concomitantly with the definition of the granzyme B release. Irrespectively of the tumor cell line and the E:T cell ratio, co-incubation of tumor cells with unstimulated NK cells (NK d0), always results in very low granzyme B release; the number of spots was always less than 20. […] At an E:T ratio of 5:1, the number of granzyme B spots, as determined in three independent experiments, was as follows: CX+ 260±20, CX− 165±6; Colo+ 137±55; Colo− 66±8. […] It was hypothesized that interaction of granzyme B with membrane-bound Hsp70-peptide TKD is key for its uptake into tumor cells and for the induction of apoptosis. When NK cells were removed by washing with PBS and the tumor cells were stained with DAPI. […] Identical results were obtained with Annexin V-FITC staining (data not shown).

Another experiment deals with CX− tumor cells. The description is as above. It counts as cell-based, human. The settings on record: TKD-stimulated NK cells (NK d3), 4 h coincubation, E:T 5:1, three independent experiments. On the procedure:
as §4, §5

The next experiment deals with Colo+ tumor cells. The description is as above. It counts as cell-based, human. Particulars: TKD-stimulated NK cells (NK d3), 4 h coincubation, E:T 5:1, three independent experiments. Here is the method: as §4, §5
A further experiment relates to Colo− tumor cells. The description is as above. The settings on record: TKD-stimulated NK cells (NK d3), 4 h coincubation, E:T 5:1, three independent experiments. The format is cell-based, human. Here is the method:
as §4, §5

Experiment [1] concerns Hsp70 membrane-negative CX− cells. Nature of the experiment: Microscopy of tumor cells co-incubated with Hsp70-peptide TKD stimulated NK cells. The format is cell-based, human. Here is the method:
(§6) FIG. 4A: Light microscopy (magnification 20×) of Hsp70 membrane-positive CX+ and Hsp70 membrane-negative CX− cell colonies, either untreated (control) or following a 12 h co-incubation with Hsp70-peptide TKD stimulated NK cells (+NK). The effector to target cell ratio (E:T) was 20:1.
(§7) The physiological role of our findings was tested in functional assays using naive and Hsp70 stimulated human NK cells. […] Although Hsp70 acts as a tumor-selective recognition structure for NK cells, as determined by antibody blocking studies (Multhoff et. al. (1997) J. Immunol. 158,4341; Multhoff et. al. (1995) Blood 86,1374), the NK-cytotoxic mechanism remains unclear. To elucidate the possible mechanism, NK cells were incubated with Hsp70-peptide TKD ([…]) for 3 days. […] In contrast, granzyme B expression was not increased in CD3 positive T cells treated with Hsp70-peptide TKD. Light microscopical analysis of Hsp70-peptide activated NK cells co-incubated with Hsp70 membrane-positive CX+ and Hsp70 membrane-negative CX− cells is illustrated in FIG. 4A. Hsp70 membrane-positive CX+ and Hsp70 membrane-negative CX− tumor cells (0.1×10^6 cells/ml) were cultured in duplicates in 24 well plates for 2 days. […] CX+ and CX− tumor cells in the upper panel were cultured in the absence of NK cells; tumor cells in the lower panel were co-cultured for 12 h with NK cells that had been stimulated with Hsp70-peptide TKD (2 μg/ml, 3 days). Nearly 100% of the CX+ cell colonies were found in clusters with NK cells and viability of CX+ tumor cells appears to be reduced. […] Cell viability of CX− tumor cells following contact with NK cells appears to be less affected, as compared to that of CX+ tumor cells. The inserts in the lower right corner of each graph illustrates a 2.5× magnification of one representative cell colony.
as §3

In experiment [2] the test system is Hsp70 membrane-positive CX+ cells. The experiment is described as above. It counts as cell-based, human. Here is the method: as §6, §7, §3
For experiment [3], the system named is Hsp70 membrane-positive tumor target cells. Particulars: Hsp70-peptide 0.2-2.0 μg/ml; cited from earlier work.
Where [4] appears, read: 12 h co-culture with NK cells stimulated with TKD 2 μg/ml, 3 days, E:T 20:1.

As for “TKDNNLLGRFELSG (listed as Homo sapiens) [Hsp70-peptide TKD]”, the “intracellular granzyme B levels, TKD stimulated NK cells (NK d3) versus naive NK cells (NK d0)” value with NK cells (Hsp70-peptide TKD 2 μg/ml, 3 days) was 1.4 fold. Besides, the “intracellular granzyme B expression in NK cells” value in the experiment on NK cells (Hsp70-peptide TKD for 3 days, 3 independent experiments) is on record as “significantly elevated”. In the experiment with CD3 positive T cells, the “granzyme B expression in CD3 positive T cells” value is on record as “not increased”. In addition, the “lysis of CX+ cells, TKD stimulated (NK d3) versus naive NK cells (NK d0)” value in the experiment on CX+ tumor target cells is 1.5 fold. Further, the “lysis of CX− tumor cells, NK d3 versus NK d0” value with CX− tumor target cells is given as “remained unaffected”. The “lysis of Colo+ cells, TKD stimulated (NK d3) versus naive NK cells (NK d0)” value with Colo+ tumor target cells is 2.0 fold. In the experiment with Colo− tumor target cells, the “lysis of Colo− tumor cells, NK d3 versus NK d0” value is given as “remained unaffected”. Besides, the “number of granzyme B spots” value with CX+ tumor cells was determined as 260±20; with CX− tumor cells, 165±6; in the experiment on Colo+ tumor cells, 137±55; in the experiment on Colo− tumor cells, 66±8. Also, in [1] (setting [4]), the “CX− tumor cells in clusters with NK cells” value is “not found in clusters”. The “DNA fragmentation (DAPI) in CX− cells after co-incubation with TKD activated NK cells” value in experiment [1] (NK cells removed by washing) was “not”. Also, the “CX+ cell colonies found in clusters with NK cells” value in [2] (setting [4]) is listed as approximately 100%. Also, the “DNA fragmentation (DAPI) in CX+ cells after co-incubation with TKD activated NK cells” value in experiment [2] (NK cells removed by washing) is listed as “showed DNA fragmentation”. The “cytolytic activity of NK cells against Hsp70 membrane-positive tumor target cells” value in [3] is “increased cytolytic activity”.
